Results published in ChEMBL document CHEMBL4613277, “Improving the Potency of N-Aryl-2,5-dimethylpyrroles against Multidrug-Resistant and Intracellular Mycobacteria” (ACS Med Chem Lett, 2020).
Converted amounts (≈) assume the structure as drawn. The source made the active and inactive calls. No cut-off for these calls is given here.

What was measured:
[1] = Selectivity index, ratio of GI50 for mouse Macrophage cells to MIC for Mycobacterium tuberculosis H37Rv; type: toxicity
[2] = Cytotoxicity against mouse macrophage cells assessed as growth inhibition incubated for 48 hrs by resazurin based assay; type: cell-based
[3] = tested on: Mycobacterium tuberculosis; assay: Antimycobacterial activity against Mycobacterium tuberculosis H37Rv assessed as reduction in bacterial growth incubated for 7 days by resazurin based assay; type: functional; conditions: 168 h
[4] = tested on: Mycobacterium tuberculosis; assay: Antimycobacterial activity against Mycobacterium tuberculosis H37Rv infected in mouse J774.1 cells assessed as reduction in bacterial colony at 1 to 10 times MIC incubated for 72 hrs by colony counting method; type: functional, organism-based
[5] = tested on: Mycobacterium tuberculosis; assay: Bacteriostatic activity against Mycobacterium tuberculosis H37Rv assessed as reduction in bacterial growth at 0.07 ug/ml incubated for 3 to 4 weeks by time kill assay; type: functional, organism-based
[6] = tested on: Mycobacterium tuberculosis; assay: Bactericidal activity against Mycobacterium tuberculosis H37Rv assessed as reduction in bacterial growth at 0.35 ug/ml incubated for 3 to 4 weeks by time kill assay; type: functional, organism-based
Mycolicibacterium aurum [7] = assay: Antimycobacterial activity against Mycobacterium aurum infected in mouse RAW264.7 cells assessed as reduction in bacterial growth incubated for 48 hrs by HT-SPOTi assay; type: functional
[8] = Acute toxicity in Galleria mellonella wax moth larve assessed as adverse effect at 12 mg/kg observed for 5 days; type: organism-based; conditions: in vivo, 120 h
[9] = Acute toxicity in Galleria mellonella wax moth larve assessed as mortality by measuring melanization at 12 mg/kg observed for 5 days; type: organism-based; conditions: in vivo, 120 h
Mycolicibacterium aurum [10] = assay: Antimycobacterial activity against Mycobacterium aurum assessed as reduction in bacterial growth incubated for 48 hrs by HT-SPOTi assay; type: functional
[11] = tested on: Mycobacterium tuberculosis; assay: Bacteriostatic activity against Mycobacterium tuberculosis H37Rv assessed as reduction in bacterial growth at 0.32 ug/ml incubated for 3 to 4 weeks by time kill assay; type: functional, organism-based

Compound: COc1ccc(-n2c(C)cc(CNC3CCCCC3)c2C)cc1
- selectivity ratio [1]: 16 to 32
- GI50 at 48 h [2]: 3.9 µg/mL (≈ 12.5 µM)
- MIC [3]: 0.12 to 0.25 µg/mL (≈ 0.384 to 0.8 µM)

Compound: COc1c(N2C[C@@H]3CCCN[C@@H]3C2)c(F)cc2c(=O)c(C(=O)O)cn(C3CC3)c12
- inhibition [4]: Active
- Activity [5]: inactive
- Activity [6]: Active

Compound: NNC(=O)c1ccncc1 [ISONIAZID]
- inhibition [4]: Active
- MIC [3]: 0.24 µg/mL (≈ 1.75 µM)

Compound: Cc1nn(-c2ccccc2)c(C)c1CNC1CCCCC1
- MIC [3]: > 25 µg/mL

Compound: Cc1nn(-c2ccc(Cl)cc2)c(C)c1CNCc1ccccc1
- MIC [3]: > 25 µg/mL

Compound: CO[C@H]1/C=C/O[C@@]2(C)Oc3c(C)c(O)c4c(O)c(c(/C=N/N5CCN(C)CC5)c(O)c4c3C2=O)NC(=O)/C(C)=C\C=C\[C@H](C)[C@H](O)[C@@H](C)[C@@H](O)[C@@H](C)[C@H](OC(C)=O)[C@@H]1C [RIFAMPIN]
- MIC [3]: > 0.06 µg/mL

Compound: Cc1cc(CN[C@H]2C[C@@H]3CC[C@H]2C3)c(C)n1-c1ccc(Cl)cc1
- selectivity ratio [1]: 47 to 94
- GI50 at 48 h [2]: 23.4 µg/mL (≈ 71.1 µM)
- MIC [3]: 0.25 to 0.5 µg/mL (≈ 0.76 to 1.52 µM)

Compound: Clc1ccc2nc(CNC3CCCCC3)cn2c1
- MIC [3]: > 25 µg/mL

Compound: Cc1cc(CNC2CCCCC2)c(C)n1-c1ccc(C(C)C)cc1
- selectivity ratio [1]: 23 to 48
- GI50 at 48 h [2]: 5.8 µg/mL (≈ 17.9 µM)
- MIC [3]: 0.12 to 0.25 µg/mL (≈ 0.37 to 0.77 µM)

Compound: Cc1cc(CNCC2CCCCC2)c(C)n1-c1ccc(Cl)cc1
- MIC (Mycolicibacterium aurum [7]): 1.95 µg/mL (≈ 5.89 µM)
- inhibition [4]: Active
- selectivity ratio [1]: 39 to 195
- GI50 at 48 h [2]: 11.7 µg/mL (≈ 35.4 µM)
- Activity [8]: Non-Toxic
- Activity [9]: Non-Toxic
- MIC (Mycolicibacterium aurum [10]): 3.9 µg/mL (≈ 11.8 µM)
- Activity [11]: Active
- MIC [3]: 0.06 to 0.3 µg/mL (≈ 0.181 to 0.907 µM)

Compound: Clc1ccc(-n2cc(CNCc3ccccc3)nn2)cc1
- MIC [3]: > 25 µg/mL

Compound: Cc1nn(-c2ccc(Cl)cc2)c(C)c1CNC1CCCCC1
- MIC [3]: > 25 µg/mL

Compound: Clc1ccc2nc(CNCc3ccccc3)cn2c1
- MIC [3]: > 25 µg/mL

Compound: Clc1ccc(-n2cc(CNC3CCCCC3)nn2)cc1
- MIC [3]: > 25 µg/mL
